± gives the standard deviation of the reports.
glass transition temperature	Structure (SMILES)
259.00 °C	*c1ccc2c(c1)C(=O)N(c1cccc(C(=O)Nc3ccc(Oc4ccc(C(C)(C)c5ccc(Oc6ccc(NC(=O)c7cccc(N8C(=O)c9ccc(C(*)(C(F)(F)F)C(F)(F)F)cc9C8=O)c7)cc6)cc5)cc4)cc3)c1)C2=O (repeat unit)
312.00 °C	*C(=O)Nc1ccc(C2(c3ccc(N4C(=O)c5ccc(*)cc5C4=O)cc3)CCC(CC)CC2)cc1 (repeat unit)
92.50 °C	*OC(C)CCOC(=O)c1ccc(-c2ccc(C(*)=O)cc2)cc1 (repeat unit)
88.00 °C	*Oc1ccc(C(CC)(c2ccccc2)c2ccc(OC(=O)CCCCCCCCC(*)=O)cc2)cc1 (repeat unit)
0.00 °C	*CCCCCCCCCCCCOc1ccc(CCc2ccc(O*)cc2C)cc1 (repeat unit)
188.00 °C	*CC(C)(C)C1C(=O)N(c2ccccc2)C(=O)C1* (repeat unit)
327.00 °C	*c1ccc2c(c1)C(=O)N(c1ccc(S(=O)(=O)c3ccc(S(=O)(=O)c4ccc(S(=O)(=O)c5ccc(N6C(=O)c7ccc(C(*)(C(F)(F)F)C(F)(F)F)cc7C6=O)cc5)cc4)cc3)cc1)C2=O (repeat unit)
261.00 °C	*c1cccc(Oc2cccc(Oc3cccc(N4C(=O)c5c(c(-c6ccccc6)c(-c6ccc(Oc7ccc(-c8c(-c9ccccc9)c9c(c(-c%10ccccc%10)c8-c8ccccc8)C(=O)N(*)C9=O)cc7)cc6)c(-c6ccccc6)c5-c5ccccc5)C4=O)c3)c2)c1 (repeat unit)
17.00 °C	*CCOCCOC(=O)NCCCCCCNC(=O)O* (repeat unit)
235.00 °C	*Nc1ccc(Cc2ccc(NC(=O)c3cc(NC(=O)CCN4C(=O)c5ccccc5C4=O)cc(C(*)=O)c3)cc2)cc1 (repeat unit)
250.00 °C	*Nc1ccc(/C=C/c2ccc(NC(=C(C#N)C#N)c3ccc(C(*)=C(C#N)C#N)cc3)cc2)cc1 (repeat unit)
130.00 °C	*c1cc(C)c(/N=C/c2ccc(OCc3ccc(COc4ccc(/C=N/c5cc(C)c(N6C(=O)c7ccc8c9ccc%10c%11c(ccc(c%12ccc(c7c8%12)C6=O)c%119)C(=O)N(*)C%10=O)cc5C)cc4)cc3)cc2)cc1C (repeat unit)
202.00 °C	*Nc1ccc(-c2ccc(NC(=O)c3cc(NC(=O)c4ccc(NC(=O)C(C)N5C(=O)c6ccccc6C5=O)cc4)cc(C(*)=O)c3)cc2)cc1 (repeat unit)
365.00 °C	*C(=O)Nc1cccc(NC(=O)c2ccc3c(c2)C(=O)N(c2cc(-c4nc5ccccc5o4)cc(N4C(=O)c5ccc(*)cc5C4=O)c2)C3=O)n1 (repeat unit)
266.00 °C	*c1ccc2c(c1)C(=O)N(c1ccc(C(=O)Nc3ccc(Oc4ccc(C(C)(C)c5ccc(Oc6ccc(NC(=O)c7ccc(N8C(=O)c9ccc(C(*)(C(F)(F)F)C(F)(F)F)cc9C8=O)cc7)cc6)cc5)cc4)cc3)cc1)C2=O (repeat unit)
238.00 °C	*Nc1ccc(Cc2ccc(NC(=O)c3cc(NC(=O)c4ccc(NC(=O)C(CC(C)C)N5C(=O)c6ccccc6C5=O)cc4)cc(C(*)=O)c3)cc2)cc1 (repeat unit)
222.00 °C	*c1ccc2c(c1)C(=O)N(c1ccc(Oc3ccc(N4C(=O)c5ccc(C(F)(F)C(F)(F)C(*)(F)F)cc5C4=O)cc3)cc1)C2=O (repeat unit)
236.00 °C	*c1ccc(Oc2ccc(-c3ccc(Oc4ccc(N5C(=O)c6cccc(Oc7ccc(C(C)(C)c8ccc(Oc9cccc%10c9C(=O)N(*)C%10=O)cc8)cc7)c6C5=O)cc4)cc3)cc2)cc1 (repeat unit)
156.00 °C	*Oc1ccc(Oc2ccc(C(=O)c3ccccc3)c(-c3cc(*)ccc3C(=O)c3ccccc3)c2)cc1 (repeat unit)
350.00 °C	*C(=O)c1ccc(C(=O)N2CC(C)N(*)CC2C)cc1 (repeat unit)
295.00 °C	*OC(=O)Oc1ccc2c(c1)Oc1cc(*)ccc1C21c2ccccc2-c2ccccc21 (repeat unit)
122.00 °C	*CCN(*)C(=O)c1c(F)cc(F)c(F)c1F (repeat unit)
55.00 °C	*CC(C)COC(=O)c1ccc(C(=O)O*)cc1 (repeat unit)
281.00 °C	*Oc1ccc(S(=O)(=O)c2ccc(Oc3ccc(S(=O)(=O)c4ccc(-c5ccc(-c6ccc(S(=O)(=O)c7ccc(*)cc7)cc6)cc5)cc4)cc3)cc2)cc1 (repeat unit)

glass transition temperature	Structure (SMILES)
245.00 °C	*C(=O)c1ccc2c(c1)C(=O)N(c1ccc(Oc3cccc(Oc4ccc(N5C(=O)c6ccc(*)cc6C5=O)cc4)c3C#N)cc1)C2=O (repeat unit)
94.00 °C	*CCN(CCOC(=O)c1ccc(C(=O)O*)c(OCCC)c1)c1ccc(C=C(C#N)C#N)cc1 (repeat unit)
320.00 °C	*c1ccc(Sc2cc3c(cc2Sc2ccc(N4C(=O)C5C6C=CC(C7C(=O)N(*)C(=O)C67)C5C4=O)cc2)C(=O)N(c2ccc(CC)cc2)C3=O)cc1 (repeat unit)
209.00 °C	*CC1CC(CNC(=O)c2cccc(C(=O)N*)c2)CC(C(C)(C)C)C1 (repeat unit)
228.51 °C	*c1ccc(Oc2ccc(Oc3ccc(Oc4ccc(N5C(=O)c6ccc(-c7ccc8c(c7)C(=O)N(*)C8=O)cc6C5=O)cc4)cc3)cc2)cc1 (repeat unit)
135.00 °C	*CCCC(CC)CCNC(=O)c1ccc(C(=O)N*)cc1 (repeat unit)
147.00 °C	*CCCCCN1C(=O)c2ccc(C(=O)Oc3ccc(-c4ccc(OC(=O)c5ccc6c(c5)C(=O)N(*)C6=O)cc4)cc3)cc2C1=O (repeat unit)
65.00 °C	*Oc1ccc(C(C)(C)c2ccc(OC(*)=O)c(CC)c2)cc1CC (repeat unit)
320.00 °C	*CC(O)CN(CC(O)COc1ccc(C(C)(C)c2ccc(O*)cc2)cc1)c1ccc(/C=C/c2ccc([N+](=O)[O-])cc2)cc1 (repeat unit)
385.00 °C	*c1ccc(C2(c3ccc(-c4cc(-c5ccccc5)c5cc(C6(c7ccc8nc(*)cc(-c9ccccc9)c8c7)c7ccccc7-c7ccccc76)ccc5n4)cc3)c3ccccc3C(=O)c3ccccc32)cc1 (repeat unit)
315.00 °C	*C(=O)Nc1ccc(Oc2cccc(NC(=O)c3ccc4c(c3)C(=O)N(c3ccc(-c5sc(-c6ccc(N7C(=O)c8ccc(*)cc8C7=O)cc6)c(-c6ccccc6)c5-c5ccccc5)cc3)C4=O)c2)cc1 (repeat unit)
275.00 °C	*c1ccc(Oc2ccc(C(C)(C)c3ccccc3)cc2)c(N2C(=O)c3ccc(-c4ccc5c(c4)C(=O)N(*)C5=O)cc3C2=O)c1 (repeat unit)
300.00 °C	*c1ccc(Oc2ccc(S(=O)(=O)c3ccc(Oc4ccc(-c5c6c(c(*)c7ccccc57)C(=O)N(c5ccc(F)cc5)C6=O)cc4)cc3)cc2)cc1 (repeat unit)
383.00 °C	*c1ccc(-c2ccc(-c3cc(-c4ccccc4)c4cc5nc(*)cc(-c6ccccc6)c5cc4n3)cc2)cc1 (repeat unit)
150.00 °C	*Oc1ccc(C2(c3ccc(OC(=O)CCCCCCCC(*)=O)cc3)c3ccccc3-c3ccccc32)cc1 (repeat unit)
-46.48 °C	*O[Si](C)(C)CCCNC(=O)C(=O)NCCC[Si](*)(C)C (repeat unit)
308.00 °C	*Nc1ccc(C(C)(C)c2ccc(NC(=O)c3cc(C(*)=O)cc(N4C(=O)C5CC=CCC5C4=O)c3)cc2)cc1 (repeat unit)
30.00 °C	*O[Si](*)(C)OCCCCCCCCCCCOc1ccc(C2COC(c3ccc(OCC(C)CC)cc3)OC2)cc1 (repeat unit)
45.90 °C	*C(=O)c1ccc(N(*)CCCCCCC)cc1 (repeat unit)
250.00 °C	*c1ccccc1C(=O)Oc1ccc2c(*)c3ccc(=O)cc-3oc2c1 (repeat unit)
74.00 °C	*Oc1ccc(OC(=O)Oc2ccc(C(*)=O)cc2)cc1 (repeat unit)
315.00 °C	*C(=O)Nc1cc(NC(=O)c2ccc3[nH]c(-c4cccc(-c5nc6cc(*)ccc6[nH]5)c4)nc3c2)cc(-c2nc3ccccc3[nH]2)c1 (repeat unit)
-72.00 °C	*CC(*)(C)C(=O)OCCCCCCCCCCCCCC (repeat unit)

Structure (SMILES)	glass transition temperature
*Sc1ccc(*)cc1 (repeat unit) [Poly[thio(p-phenylene)] ]	87 ± 2.2 °C
*Oc1ccc(S(=O)(=O)c2ccc(Oc3ccc(P(C)(=O)c4ccc(*)cc4)cc3)cc2)cc1 (repeat unit)	233.00 °C
*c1cccc(P(=O)(c2ccc(C(F)(F)F)cc2)c2cccc(-n3c(=O)c4c(-c5cc(C(F)(F)F)cc(C(F)(F)F)c5)c5c(=O)n(*)c(=O)c5c(-c5cc(C(F)(F)F)cc(C(F)(F)F)c5)c4c3=O)c2)c1 (repeat unit)	311.00 °C
*CC(*)C(=O)Oc1cc(C)cc(C)c1 (repeat unit)	54.00 °C
*CC(*)c1ccc(CCC)cc1 (repeat unit)	46.8 °C
*CC(*)(C)C(=O)Oc1cc(C)cc(C)c1 (repeat unit)	106.00 °C
*CC(*)c1ccc(OCCC)cc1 (repeat unit) [Poly(p-n-propoxy styrene)]	70 ± 3.5 °C
*CC(*)C(=O)OCCOCC (repeat unit)	-50.00 °C
*CC(*)(C)C(=O)OCCCl (repeat unit) [Poly(2-chloroethyl methacrylate) ]	90 ± 16 °C
*=NP(=NP(=NC(=*)Oc1ccc(OC)cc1)(Oc1ccc(OC)cc1)Oc1ccc(OC)cc1)(Oc1ccc(OC)cc1)Oc1ccc(OC)cc1 (repeat unit)	37.00 °C
*OC(C)CCCC(C)C(*)=O (repeat unit)	-33.00 °C
*CCOP(=O)(/N=N/c1ccc(C(=O)c2ccc(/N=N/P(=O)(O*)OCC)cc2)cc1)OCC (repeat unit)	33.00 °C
*CC(*)c1ccccn1 (repeat unit) [Poly(o-vinyl pyridine) ]	104 ± 1.1 °C
*CC(*)(C)C(=O)OCCN(C)C (repeat unit)	28.62 °C
*CC(*)C(=O)OCCCSC (repeat unit)	-65.00 °C
*CC(OC)C(C(=O)O)C(*)C(=O)O (repeat unit)	144.00 °C
